# Measurements published in ChEMBL document CHEMBL5715956, “Selective Targeting of Bromodomains of the Bromodomain-PHD Fingers Family Impairs Osteoclast Differentiation” (ACS Chem Biol, 2017).
# pIC50: −log10 of the molar value.
# Experiments:
# [1] = organism: Homo sapiens; conditions: dose 10.0 µM
# [2] = target: Histone-lysine N-methyltransferase ASH1L (Homo sapiens) (UniProt Q9NR48); conditions: dose 10.0 µM
# [3] = target: Beta-1 adrenergic receptor (Homo sapiens) (UniProt P08588); experiment: Inhibition of Beta1 (unknown origin) at 10 uM relative to control
# Sequence of Beta-1 adrenergic receptor (Homo sapiens) (P08588 whole entry, looked up): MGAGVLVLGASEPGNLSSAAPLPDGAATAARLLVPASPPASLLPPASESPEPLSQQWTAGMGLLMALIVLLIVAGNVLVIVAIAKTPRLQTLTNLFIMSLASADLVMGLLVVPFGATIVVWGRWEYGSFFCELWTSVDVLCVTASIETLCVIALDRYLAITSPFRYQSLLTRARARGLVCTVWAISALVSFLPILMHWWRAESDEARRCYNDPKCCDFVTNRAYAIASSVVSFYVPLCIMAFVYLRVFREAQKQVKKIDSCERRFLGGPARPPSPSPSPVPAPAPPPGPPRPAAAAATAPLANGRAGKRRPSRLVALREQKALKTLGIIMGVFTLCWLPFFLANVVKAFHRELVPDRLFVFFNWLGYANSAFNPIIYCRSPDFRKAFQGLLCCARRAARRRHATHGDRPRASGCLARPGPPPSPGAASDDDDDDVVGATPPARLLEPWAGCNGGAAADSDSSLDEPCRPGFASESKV
# [4] = target: Transcription intermediary factor 1-alpha (Homo sapiens) (UniProt O15164); conditions: dose 10.0 µM
# Sequence of Transcription intermediary factor 1-alpha (Homo sapiens) (O15164 whole entry): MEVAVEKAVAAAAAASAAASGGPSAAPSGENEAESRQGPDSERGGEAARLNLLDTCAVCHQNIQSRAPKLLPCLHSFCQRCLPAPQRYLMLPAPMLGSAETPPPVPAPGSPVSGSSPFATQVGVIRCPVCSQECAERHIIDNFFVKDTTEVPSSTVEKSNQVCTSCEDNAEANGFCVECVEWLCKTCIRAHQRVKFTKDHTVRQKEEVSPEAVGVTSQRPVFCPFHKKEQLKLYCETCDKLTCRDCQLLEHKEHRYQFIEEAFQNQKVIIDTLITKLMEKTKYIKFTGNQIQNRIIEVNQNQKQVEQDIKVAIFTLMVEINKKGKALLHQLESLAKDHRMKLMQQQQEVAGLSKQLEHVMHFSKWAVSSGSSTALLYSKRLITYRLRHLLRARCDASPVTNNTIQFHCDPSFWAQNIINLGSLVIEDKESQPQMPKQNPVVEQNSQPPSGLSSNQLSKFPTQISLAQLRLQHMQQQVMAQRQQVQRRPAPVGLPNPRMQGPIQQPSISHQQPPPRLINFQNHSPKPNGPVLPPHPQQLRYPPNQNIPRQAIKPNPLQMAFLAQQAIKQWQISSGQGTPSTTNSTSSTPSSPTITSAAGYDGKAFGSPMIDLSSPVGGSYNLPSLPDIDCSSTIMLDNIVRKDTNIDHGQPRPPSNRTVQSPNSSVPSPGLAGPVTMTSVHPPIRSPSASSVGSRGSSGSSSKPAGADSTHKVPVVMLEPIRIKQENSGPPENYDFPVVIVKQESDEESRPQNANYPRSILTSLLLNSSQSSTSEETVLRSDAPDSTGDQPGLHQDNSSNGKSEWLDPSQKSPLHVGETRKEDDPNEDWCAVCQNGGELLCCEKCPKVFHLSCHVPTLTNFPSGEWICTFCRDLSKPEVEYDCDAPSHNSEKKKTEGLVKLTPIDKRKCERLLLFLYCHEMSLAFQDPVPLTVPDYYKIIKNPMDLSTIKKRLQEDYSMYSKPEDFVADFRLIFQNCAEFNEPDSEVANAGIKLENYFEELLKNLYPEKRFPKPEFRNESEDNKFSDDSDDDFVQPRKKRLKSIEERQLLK
# [5] = target: Beta-1 adrenergic receptor (Homo sapiens) (UniProt P08588); experiment: Binding affinity to Beta1 (unknown origin) assessed as specific binding at 10 uM relative to control
# [6] = target: Histone acetyltransferase KAT2A (Homo sapiens) (UniProt Q92830); conditions: dose 10.0 µM
# Sequence of Histone acetyltransferase KAT2A (Homo sapiens) (Q92830 2-837 limits assumed): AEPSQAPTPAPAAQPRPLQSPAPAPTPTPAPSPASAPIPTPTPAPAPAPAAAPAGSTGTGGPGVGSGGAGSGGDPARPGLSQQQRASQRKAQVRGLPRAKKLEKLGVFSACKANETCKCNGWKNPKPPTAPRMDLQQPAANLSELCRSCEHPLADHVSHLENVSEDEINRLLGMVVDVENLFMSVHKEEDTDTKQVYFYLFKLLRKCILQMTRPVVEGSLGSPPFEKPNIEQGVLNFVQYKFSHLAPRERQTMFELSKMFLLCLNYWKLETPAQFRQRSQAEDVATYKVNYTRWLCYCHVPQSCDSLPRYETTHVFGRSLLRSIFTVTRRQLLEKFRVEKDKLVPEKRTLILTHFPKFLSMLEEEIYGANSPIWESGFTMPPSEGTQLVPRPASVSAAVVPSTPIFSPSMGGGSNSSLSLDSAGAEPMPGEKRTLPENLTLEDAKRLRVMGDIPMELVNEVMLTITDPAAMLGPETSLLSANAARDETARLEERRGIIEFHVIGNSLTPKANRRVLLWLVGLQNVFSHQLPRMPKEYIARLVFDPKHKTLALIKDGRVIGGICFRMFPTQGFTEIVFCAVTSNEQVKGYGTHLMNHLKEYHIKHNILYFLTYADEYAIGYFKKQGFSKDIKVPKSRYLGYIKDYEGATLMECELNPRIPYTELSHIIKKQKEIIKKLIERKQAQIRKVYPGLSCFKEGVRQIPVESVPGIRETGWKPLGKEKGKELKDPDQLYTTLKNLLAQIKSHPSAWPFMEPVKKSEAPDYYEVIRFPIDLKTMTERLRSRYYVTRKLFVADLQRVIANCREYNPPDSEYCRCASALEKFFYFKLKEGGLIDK
# [7] = target: Adrenergic receptor alpha-2 (Homo sapiens) (UniProt P08913+P18825+P18089); experiment: Inhibition of Alpha 2 receptor (unknown origin) at 10 uM relative to control; format: protein assay
# [8] = target: Bromodomain-containing protein 4 (Homo sapiens) (UniProt O60885); experiment: Binding affinity to BRD4 BD1 (unknown origin) assessed as change in entropy at 14 uM by Isothermal titration calorimetry
# [9] = target: Bromodomain-containing protein 2 (Homo sapiens) (UniProt P25440); conditions: dose 10.0 µM
# Sequence of Bromodomain-containing protein 2 (Homo sapiens) (P25440 whole entry, looked up): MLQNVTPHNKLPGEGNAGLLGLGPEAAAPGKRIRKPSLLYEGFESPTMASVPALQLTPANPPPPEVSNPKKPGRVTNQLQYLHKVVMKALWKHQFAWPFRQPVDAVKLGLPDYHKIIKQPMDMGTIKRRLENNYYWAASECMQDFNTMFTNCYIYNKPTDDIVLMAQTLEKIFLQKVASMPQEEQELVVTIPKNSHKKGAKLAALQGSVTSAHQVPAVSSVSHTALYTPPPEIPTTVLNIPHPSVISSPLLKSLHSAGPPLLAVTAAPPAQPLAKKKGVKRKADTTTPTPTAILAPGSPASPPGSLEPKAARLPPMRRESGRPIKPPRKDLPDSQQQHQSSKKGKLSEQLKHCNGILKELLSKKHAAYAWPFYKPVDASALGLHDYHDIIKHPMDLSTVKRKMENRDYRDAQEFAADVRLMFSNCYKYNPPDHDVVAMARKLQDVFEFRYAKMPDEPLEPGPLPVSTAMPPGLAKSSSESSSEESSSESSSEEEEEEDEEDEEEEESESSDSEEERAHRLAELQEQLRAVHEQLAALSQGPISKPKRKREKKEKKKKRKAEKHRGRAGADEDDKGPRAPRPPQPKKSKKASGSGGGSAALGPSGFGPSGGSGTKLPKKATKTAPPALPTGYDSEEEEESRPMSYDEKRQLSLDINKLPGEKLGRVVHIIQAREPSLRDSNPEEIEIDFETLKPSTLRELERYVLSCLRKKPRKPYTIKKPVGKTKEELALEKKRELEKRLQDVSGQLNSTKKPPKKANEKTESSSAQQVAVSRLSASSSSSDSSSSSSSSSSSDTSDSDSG
# [10] = target: Bromodomain testis-specific protein (Homo sapiens) (UniProt Q58F21); conditions: dose 10.0 µM
# [11] = target: Beta-2 adrenergic receptor (Homo sapiens) (UniProt P07550); experiment: Inhibition of Beta2 (unknown origin) at 10 uM relative to control
# Sequence of Beta-2 adrenergic receptor (Homo sapiens) (P07550 whole entry, looked up): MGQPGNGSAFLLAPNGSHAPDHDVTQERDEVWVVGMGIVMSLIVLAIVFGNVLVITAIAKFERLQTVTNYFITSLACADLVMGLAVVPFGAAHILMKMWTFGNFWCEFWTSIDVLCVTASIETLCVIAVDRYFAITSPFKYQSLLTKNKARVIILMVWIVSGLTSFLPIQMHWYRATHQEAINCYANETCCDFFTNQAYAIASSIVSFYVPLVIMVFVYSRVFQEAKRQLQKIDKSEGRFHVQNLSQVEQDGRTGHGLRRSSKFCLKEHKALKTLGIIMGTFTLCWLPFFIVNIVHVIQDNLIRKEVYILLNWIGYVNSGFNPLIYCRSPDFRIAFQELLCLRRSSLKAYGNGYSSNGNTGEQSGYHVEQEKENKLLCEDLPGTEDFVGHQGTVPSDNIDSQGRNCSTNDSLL
# [12] = target: Transcription intermediary factor 1-alpha (Homo sapiens, UniProt O15164)
# Sequence of Transcription intermediary factor 1-alpha (O15164 whole entry): as the sequence (O15164 whole entry) above
# [13] = organism: Homo sapiens; conditions: dose 10.0 µM; remark: listed apart in the source
# [14] = target: ATPase family AAA domain-containing protein 2B (Homo sapiens) (UniProt Q9ULI0); conditions: dose 10.0 µM
# Sequence of ATPase family AAA domain-containing protein 2B (Homo sapiens) (Q9ULI0 whole entry, the tested form may be a part): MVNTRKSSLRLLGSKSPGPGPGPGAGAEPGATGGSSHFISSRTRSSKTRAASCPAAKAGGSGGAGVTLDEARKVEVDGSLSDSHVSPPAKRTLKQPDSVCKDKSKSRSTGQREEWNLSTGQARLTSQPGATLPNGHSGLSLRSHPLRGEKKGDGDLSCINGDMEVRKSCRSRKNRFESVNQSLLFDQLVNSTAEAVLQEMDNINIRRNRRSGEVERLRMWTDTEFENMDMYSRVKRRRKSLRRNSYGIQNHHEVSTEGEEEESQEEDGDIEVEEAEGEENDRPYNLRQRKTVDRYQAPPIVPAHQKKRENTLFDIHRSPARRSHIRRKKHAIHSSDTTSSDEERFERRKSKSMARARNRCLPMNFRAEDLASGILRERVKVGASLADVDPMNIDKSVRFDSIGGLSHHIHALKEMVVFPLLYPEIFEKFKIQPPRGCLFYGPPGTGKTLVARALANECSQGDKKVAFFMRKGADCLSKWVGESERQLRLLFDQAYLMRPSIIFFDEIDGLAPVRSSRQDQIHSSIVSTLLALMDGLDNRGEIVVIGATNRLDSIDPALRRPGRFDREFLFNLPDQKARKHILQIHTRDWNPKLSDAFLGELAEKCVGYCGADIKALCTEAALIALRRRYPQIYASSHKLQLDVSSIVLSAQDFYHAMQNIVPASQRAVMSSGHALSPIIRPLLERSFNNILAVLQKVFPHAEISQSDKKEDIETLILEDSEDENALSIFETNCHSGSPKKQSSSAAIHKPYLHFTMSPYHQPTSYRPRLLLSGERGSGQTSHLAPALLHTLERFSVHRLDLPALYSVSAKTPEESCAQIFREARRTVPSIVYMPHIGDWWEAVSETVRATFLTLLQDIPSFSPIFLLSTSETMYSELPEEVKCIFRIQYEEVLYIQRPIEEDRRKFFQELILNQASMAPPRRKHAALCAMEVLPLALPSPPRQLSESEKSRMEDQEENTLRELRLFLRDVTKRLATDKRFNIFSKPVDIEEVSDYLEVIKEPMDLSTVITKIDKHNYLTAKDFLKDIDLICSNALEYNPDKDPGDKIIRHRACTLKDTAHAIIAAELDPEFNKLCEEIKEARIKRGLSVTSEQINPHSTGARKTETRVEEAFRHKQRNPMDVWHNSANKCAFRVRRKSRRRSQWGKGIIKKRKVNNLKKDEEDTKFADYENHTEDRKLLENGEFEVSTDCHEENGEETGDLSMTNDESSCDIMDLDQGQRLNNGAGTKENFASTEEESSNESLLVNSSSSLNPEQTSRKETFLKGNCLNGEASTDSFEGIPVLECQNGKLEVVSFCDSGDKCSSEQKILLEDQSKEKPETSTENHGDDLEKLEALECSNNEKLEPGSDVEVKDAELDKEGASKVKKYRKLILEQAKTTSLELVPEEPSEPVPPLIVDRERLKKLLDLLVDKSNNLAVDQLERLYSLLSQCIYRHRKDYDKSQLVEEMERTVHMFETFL
# [15] = target: T1, Bromodomain-containing protein 1 (Homo sapiens) (UniProt O95696); conditions: dose 10.0 µM
# T1 sequence (whole entry): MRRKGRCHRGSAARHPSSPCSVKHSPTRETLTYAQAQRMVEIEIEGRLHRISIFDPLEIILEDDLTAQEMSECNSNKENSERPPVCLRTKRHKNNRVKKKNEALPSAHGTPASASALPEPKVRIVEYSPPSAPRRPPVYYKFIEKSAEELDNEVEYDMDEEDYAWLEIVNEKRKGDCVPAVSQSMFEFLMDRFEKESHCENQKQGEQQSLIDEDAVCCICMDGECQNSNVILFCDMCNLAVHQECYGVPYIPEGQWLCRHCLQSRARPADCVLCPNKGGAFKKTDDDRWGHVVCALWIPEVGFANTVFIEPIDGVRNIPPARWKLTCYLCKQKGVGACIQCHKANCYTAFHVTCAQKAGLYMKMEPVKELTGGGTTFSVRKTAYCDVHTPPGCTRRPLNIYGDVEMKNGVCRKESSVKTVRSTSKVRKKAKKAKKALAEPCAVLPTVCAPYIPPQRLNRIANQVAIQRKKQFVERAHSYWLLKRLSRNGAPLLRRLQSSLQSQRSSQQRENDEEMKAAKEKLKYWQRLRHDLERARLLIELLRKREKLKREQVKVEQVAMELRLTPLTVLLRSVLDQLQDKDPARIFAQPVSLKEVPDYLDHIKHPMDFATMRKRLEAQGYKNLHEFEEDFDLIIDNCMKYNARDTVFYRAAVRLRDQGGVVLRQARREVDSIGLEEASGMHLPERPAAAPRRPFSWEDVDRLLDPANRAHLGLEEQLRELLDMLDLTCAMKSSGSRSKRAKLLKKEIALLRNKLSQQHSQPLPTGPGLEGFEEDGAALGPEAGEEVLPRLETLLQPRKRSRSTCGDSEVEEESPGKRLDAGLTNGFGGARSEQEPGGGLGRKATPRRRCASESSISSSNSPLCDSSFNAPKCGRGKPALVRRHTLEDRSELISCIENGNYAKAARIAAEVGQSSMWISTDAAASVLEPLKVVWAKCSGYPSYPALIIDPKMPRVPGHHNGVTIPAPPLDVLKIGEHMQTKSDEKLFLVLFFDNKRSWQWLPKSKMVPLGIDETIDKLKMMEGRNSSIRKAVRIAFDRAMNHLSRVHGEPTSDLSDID
# [16] = target: Bromodomain-containing protein 4 (Homo sapiens) (UniProt O60885); experiment: Binding affinity to BRD4 BD1 (unknown origin) assessed as change in gibbs free energy at 14 uM by Isothermal titration calorimetry
# [17] = target: Bromodomain-containing protein 4 (Homo sapiens) (UniProt O60885); conditions: dose 10.0 µM
# [18] = organism: Homo sapiens; conditions: dose 10.0 µM; remark: listed apart in the source
# [19] = target: Transcription initiation factor TFIID subunit 1-like (Homo sapiens) (UniProt Q8IZX4); conditions: dose 10.0 µM
# [20] = target: Protein polybromo-1 (Homo sapiens) (UniProt Q86U86); conditions: dose 10.0 µM
smiles,measurement,setting,value
COc1cc2c(cc1NS(=O)(=O)c1ccc(Br)cc1C)n(C)c(=O)n2C,ΔTm,[1],3.3 °C
same,ΔTm,[2],0.3 °C
same,inhibition,[3],11%
same,ΔTm,[4],1.8 °C
same,Activity,[5],92.6%
same,ΔTm,[6],-0.4 °C
same,inhibition,[7],-3%
same,deltaS,[8],0.001 kcal/mol/K
same,ΔTm,[9],0.8 °C
same,ΔTm,[10],0.4 °C
same,inhibition,[11],8%
same,pIC50,[12],< 5.00
same,ΔTm,[13],0.2 °C
same,ΔTm,[14],-0.3 °C
same,ΔTm,[15],3.1 °C
same,deltaG,[16],-7.13 kcal/mol
same,ΔTm,[17],0.6 °C
same,ΔTm,[18],-0.4 °C
same,ΔTm,[19],1.4 °C
same,ΔTm,[20],0.4 °C
